Consider two compounds from patent US12729368B2, “Methods and compositions for generating oligodendrocyte progenitor cells” (Trailhead Biosystems Inc., priority 2022, dated 2026).

What all share (format): cell-based, human
The test system of experiment [1] is pre-OPCs. Put plainly: HD-DoE 12-factor model for stage 2 (version 1), 3 days on stage 1 pre-OPCs. To be noted: for factor contribution: optimized for maximum expression of OLIG2 at 1841.6. A digest of the protocol:
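Cells grown first in stage 1 medium were treated for 3 days with combinations of 8 or 12 factors, including FGF, TGF-b, WNT, RA, AKT, SHH, mTOR and PKC pathway modulators. Gene expression was modelled and maximized for OLIG2, with NKX2-2, SOX10, OLIG1 and PDGFRa tracked by dynamic profile analysis.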

A further experiment deals with stage 2 early-OPCs. Put plainly: HD-DoE 12-factor model for stage 3 (version 1) on stage 2 early-OPCs. To be noted: positive. On the procedure:
In another model, the effects of Activin A and TTNPB along with LDN193189, MHY1485, PDGF-AA, AICAR, FGF2, CHIR99021, DBZ, MK2206, Purmorphamine and T3+T4 were tested on gene profile of differentiating cells. When this model was optimized for maximum expression of SOX10 at 54.7, we observed Activin A again had positive regulatory impact on its expression, with factor contribution of 4.7. Other positive factors included MK2206, with the highest factor contribution at 16.2, MHY1485 at 11.49, CHIR99021 at 9.6, DBZ at 9.3, FGF2 at 3.6 and PDGF-AA, with factor contribution less than 3 (FIG. 20).
In this model, we also investigated the conditions of expression of another important OPC gene, CSPG4 (Goldman and Kuypers (2015) Development 142:3983-95: van Tilborg et al. (2018) Glia 66:221-238).
Dynamic profile analysis was used to better assess the impact of the factors on our selected genes and find the combination set that can optimize their expression (FIG. 22). According to this analysis, even though Activin A has a positive effect on SOX10, it decreases level of PDGFRa and OLIG1. […] Moreover, SOX10 is one of the main transcription factors of oligodendrocytes, along with OLIG2 and NKX2-2, that has shown the potential to commit the stem cells to oligodendrocytes in reprogramming efforts (Wang et al. (2014) Proc Natl Acad Sci USA 111:E2885-94; Garciá-León et al. (2018) Stem Cell Reports 10:655-672). […] One of the main challenges of differentiating cells to oligodendrocyte fate is controlling the mixed population and increasing the purity of the culture by committing more cells to oligodendrocyte over neuronal identity. Therefore, DBZ was excluded from the final recipe.
At this point, we investigated the expression profile of a larger group of genes defining oligodendrocyte progenitor population at a later stage, including ID2, CNP and BCAN (Perlman et al. (2020). Glia 68:1291-1303; Goldman and Kuypers (2015) Development 142:3983-95). In this model, these genes were expressed at 1900, 660 and 44, respectively.

For experiment [2], the system named is pre-OPCs. Put plainly: HD-DoE 8-factor model for stage 2 (version 2) on pre-OPCs. The conditions noted are these: positive. On the procedure: To engineer the recipe of stage 2 of differentiation, cells were first cultured in the stage 1 media described in Example 1, then, 48 or 96 different combinations of effectors generated using Design-of-Experiments compression through D-optimality were robotically prepared. The effector combinations were prepared in a basal media and were subsequently added to the cells, which were then allowed to differentiate. Three days later RNA extraction was performed, and gene expression was obtained using quantitative PCR analysis. The data was normalized and modeled using partial least squares regression analysis to the effector design, resulting in the generation of gene-specific models, which after model tuning for maximal predictive power, provided explanation of the effectors ability to control the expression of individual genes, combinatorically, and individually. Solutions within the tested space could then be explored to address desirability.
At this point, due to short duration of culture (only six days in vitro) we decided to focus on maximal expression of OLIG2 and maintenance of high expression of NKX2-2, while initiating expression of SOX10, OLIG1 and PDGFRa, to guide the cells towards oligodendrocyte fate (Emery and Lu (2015). Cold Spring Harb Perspect Biol. 7:a020461; Perlman et al. (2020). Glia 68:1291-1303; Goldman and Kuypers (2015) Development 142:3983-95). In one 8-factor model, the individual and combinatorial impact of CHIR99021 (a WNT pathway agonist), AGN193109 (an RA pathway antagonist), FGF-2 (an FGFR agonist), Purmorphamine (an SHH pathway agonist), AICAR (an AMPK agonist), GW3965 (an LXR pathway agonist), GW590735 (a PPAR-a agonist) and AZD3147 (a mTOR antagonist) on further differentiation of cells were tested.

Setting [3] is: optimized for maximum expression of OLIG1 at 454.7.
Where [4] appears, read: optimized for maximum expression of OLIG2 at 3325.

Regarding `c1ccc2c(Oc3nc(Nc4ccc(N5CCOCC5)cc4)c4ncn(C5CCCCC5)c4n3)cccc2c1` [Purmorphamine], the “effect on expression of SOX10” value with pre-OPCs [1] (dynamic profile, model maximized for OLIG2) was “positively regulate”. The factor contribution with pre-OPCs [1] (negative impact) was 7.2; with stage 2 early-OPCs (optimized for maximum expression of CSPG4 at 38.6), 10.3; in the experiment with pre-OPCs [2] (setting [3]), 22.75; in the experiment on pre-OPCs [2] (setting [4]), 7.39.

As to “FGF2: FGF pathway activator, an FGFR agonist”, the factor contribution with pre-OPCs [1] (positive regulatory effect) came out at 12.9; in the experiment with stage 2 early-OPCs (optimized for maximum expression of SOX10 at 54.7) it was 3.6; with pre-OPCs [2] (setting [3]), 9.9; with pre-OPCs [2] (setting [4]), 5.2.
